Experimental data published in publication PMC9573696, “Experimental Examination of Solubility and Lipophilicity as Pharmaceutically Relevant Points of Novel Bioactive Hybrid Compounds” (Molecules, 2022).

Tests used:
Format in all cases: physicochemical
[1] = Thermodynamic functions of transfer 1-octanol/buffer pH 7.4; settings: 298.15 K
Procedure: The temperature variation of the partition coefficient provides enthalpic and entropic contributions to the free energy of transfer. The thermodynamic transfer functions for hybrids I–III in the 1-octanol/buffer pH 7.4 system were calculated by Equations (12)–(16) and are summarized in Table 6. The standard Gibbs energy values for all the compounds are negative. Therefore, the transfer from the aqueous medium to the organic phase within the studied temperature range is thermodynamically favourable and spontaneous. The standard transfer enthalpies of all the studied compounds are positive, which means the process is endothermic. Energy is consumed during the transfer to overcome the hydrophobic effects in water (destruction of the molecule solvate shell structure), destruction of the solvent–solute interactions in the aqueous medium and creation of a cavity in the organic phase where the solute molecules can enter.
The standard change in Gibbs free energy of transfer (∆trG^o) from the buffer to the organic phase was calculated by Equation (14):∆trG^o = −RTlnP*o/b(14)
The standard change entropy of transfer (∆trS^o) is determined as follows:∆trS^o = (∆trH^o − ∆trG^o)/T(15)

[2] = Partition in system 1-octanol/buffer pH 7.4, shake-flask method; settings: for logP at 2 days / logD at 2 days: 1-octanol/buffer pH 7.4, pH 7.4, 1-octanol/buffer pH 7.4; for logP at 2 days: from concentrations in mole fraction; for logD at 2 days / logPo/b: from concentrations in mol∙L^−1; for sb × 10^5 (concentration in buffer) / so × 10^3 (concentration in 1-octanol) / xb × 10^7 (mole fraction in buffer) / xo × 10^4 (mole fraction in 1-octanol) / logPo/b: 1-octanol/buffer pH 7.4
Procedure: The partition coefficients of the new hybrid compounds in the model system 1-octanol/buffer pH 7.4 as a lipophilicity surrogate were determined experimentally. […] It is the lipophilic properties that allow the hybrids to move from the water phase to the less hydrophilic octanol phase, where the solute–solvent intermolecular interactions are more favourable. According to the results shown in Table 5, the order of changes in the partition coefficients logPo/b at T = 298.15 K, depending on the substituent nature, is expressed as the inequality: Cl- (1.65) < F- (2.40) < CH3- (2.50). Compounds I and II are the most lipophilic in the series of the studied substances, whereas the introduction of a chlorine atom considerably lowers the partition coefficient (~0.8 log units). This fact agrees with the common concept that lipophilic groups are usually hydrocarbon or fluorine-containing radicals. […] For drugs with such partition coefficients, there is a good balance between the solubility and permeability through passive diffusion and minimum metabolism due to the low binding capacity with enzymes.
The octanol/buffer pH 7.4 partition coefficient logPO/B is measured in a static mode using the shake-flask method. The procedure has been presented as standard in the Organization for Economic Cooperation and Development (OECD) guidelines for testing chemicals. The equipment described above was also used for the determination of the 1-octanol/water partition coefficients. […] The correctness of the obtained value of each compound was verified by checking the mass balance of the starting amount of the compound and the total amount of the compound partitioned between the two phases.
To aim evaluated transfer (partition) thermodynamic functions, the 1-octanol/buffer partition coefficients P^* o/b as the ratio of equilibrium concentrations in the organic (xo) and aqueous phases (xb) expressed in mole fractions were calculated: P* o/b = xo/xb(12)

[3] = Apparent thermodynamic functions of dissolution (van't Hoff); settings: Thm = 302.98 K
Source text: The dissolution of the new hybrids was characterized based on apparent thermodynamic parameters obtained from temperature dependences of solubility of the studied compounds in the selected solvents (Figure 6). […] The van’t Hoff enthalpy of dissolution can be expressed as the inclination of a tangent to a solubility curve plotted as lnx vs. (1/T − 1/Thm) by Equation (6): (6) ΔHsolo=−R(∂lnx/∂(1/T−1/Thm))=−R⋅slope where R = 8.314 J⋅K^−1·mol^−1 is the universal gas constant. Thm = 302.98 K denotes the mean harmonic temperature, which was calculated by Equation (7):(7) Thm=n/∑i=1n1/Ti where n represented the number of experimental temperatures. The apparent standard Gibbs energy was evaluated by Equation (8):(8) ΔGsolo=−RThm×intersept
The apparent standard solution entropies were obtained from the well-known relationship:(9) ΔSsolo=ΔHsolo−ΔGsolo/Thm
The calculated apparent thermodynamic solubility functions of dissolution (Gibbs energy, enthalpy, and entropy) at standard temperature 298.15 K for hybrid compounds were collected in Table 4.

For `O=c1c2sc(=S)n(-c3ccc(F)cc3)c2ncn1CCCN1CCN(CC(O)(Cn2cncn2)c2ccc(F)cc2F)CC1` (stereo not drawn) [II, 6-[3-[4-[2-(2,4-difluorophenyl)-2-hydroxy-3-(1H-1,2,4-triazol-1-yl)propyl]-1-piperazinyl]propyl]-2,3-dihydro-3-(4-fluorophenyl)-2-thioxo-thiazolo[4,5-d]pyrimidin-7(6H)-one], the “T∆trS^o” value [1] was 7.62 ± 0.19 kcal/mol, the “∆trG^o” value [1] was -4.57 ± 0.072 kcal/mol and the “∆trH^o” value [1] was 3.06 ± 0.048 kcal/mol. The “∆trS^o” value [1] was 106.9 ± 2.9 J·mol^−1·K^−1, the logP at 2 days ([2]; 293.15 K) was 3.3 and the logD at 2 days ([2]; 293.15 K) was 2.36. It also gave a logP at 2 days ([2]; 298.15 K) of 3.34, a logP at 2 days ([2]; 303.15 K) of 3.37 and a logD at 2 days ([2]; 303.15 K) of 2.43. It also gave a logP at 2 days ([2]; 308.15 K) of 3.41, a logP at 2 days ([2]; 313.15 K) of 3.45 and a logD at 2 days ([2]; 313.15 K) of 2.5. For the same molecule, the “sb × 10^5 (concentration in buffer)” value ([2]; 293.15 K) was 1.47 mol∙L^−1 (printed as sb × 10^5, the “so × 10^3 (concentration in 1-octanol)” value ([2]; 293.15 K) was 3.39 mol∙L^−1 (printed as so × 10^3 and the “xb × 10^7 (mole fraction in buffer)” value ([2]; 293.15 K) was 2.67 mole fraction (printed as xb ×. For the same molecule, the “xo × 10^4 (mole fraction in 1-octanol)” value ([2]; 293.15 K) was 5.34 mole fraction (printed as xo ×, the “sb × 10^5 (concentration in buffer)” value ([2]; 298.15 K) was 1.35 mol∙L^−1 (printed as sb × 10^5 and the “so × 10^3 (concentration in 1-octanol)” value ([2]; 298.15 K) was 3.39 mol∙L^−1 (printed as so × 10^3. The “xb × 10^7 (mole fraction in buffer)” value ([2]; 298.15 K) was 2.45 mole fraction (printed as xb ×, the “xo × 10^4 (mole fraction in 1-octanol)” value ([2]; 298.15 K) was 5.37 mole fraction (printed as xo × and the logPo/b ([2]; 298.15 K) was 2.40. The “sb × 10^5 (concentration in buffer)” value ([2]; 303.15 K) was 1.25 mol∙L^−1 (printed as sb × 10^5, the “so × 10^3 (concentration in 1-octanol)” value ([2]; 303.15 K) was 3.39 mol∙L^−1 (printed as so × 10^3 and the “xo × 10^4 (mole fraction in 1-octanol)” value ([2]; 303.15 K) was 5.39 mole fraction (printed as xo ×. For the same molecule, the “sb × 10^5 (concentration in buffer)” value ([2]; 308.15 K) was 1.15 mol∙L^−1 (printed as sb × 10^5, the “so × 10^3 (concentration in 1-octanol)” value ([2]; 308.15 K) was 3.39 mol∙L^−1 (printed as so × 10^3 and the “xb × 10^7 (mole fraction in buffer)” value ([2]; 308.15 K) was 2.08 mole fraction (printed as xb ×. The “xo × 10^4 (mole fraction in 1-octanol)” value ([2]; 308.15 K) was 5.42 mole fraction (printed as xo ×, the logPo/b ([2]; 308.15 K) was 2.47 and the “sb × 10^5 (concentration in buffer)” value ([2]; 313.15 K) was 1.06 mol∙L^−1 (printed as sb × 10^5. For the same molecule, the “so × 10^3 (concentration in 1-octanol)” value ([2]; 313.15 K) was 3.39 mol∙L^−1 (printed as so × 10^3, the “xb × 10^7 (mole fraction in buffer)” value ([2]; 313.15 K) was 1.94 mole fraction (printed as xb × and the “xo × 10^4 (mole fraction in 1-octanol)” value ([2]; 313.15 K) was 5.44 mole fraction (printed as xo ×. The TΔSsolo ([3]; 1-Octanol) was -2.49 kcal/mol, the ΔGsolo ([3]; 1-Octanol) was 4.16 ± 0.072 kcal/mol and the ΔHsolo ([3]; 1-Octanol) was 1.65 ± 0.024 kcal/mol. For the same molecule, the ΔSsolo ([3]; 1-Octanol) was −35.1 ± 1.8 J·mol^−1·K^−1, the TΔSsolo ([3]; Buffer pH 2.0) was -1.36 kcal/mol and the ΔGsolo ([3]; Buffer pH 2.0) was 6.36 ± 0.12 kcal/mol. It also gave a ΔHsolo ([3]; Buffer pH 2.0) of 5 ± 0.048 kcal/mol, a ΔSsolo ([3]; Buffer pH 2.0) of −19.1 ± 1.1 J·mol^−1·K^−1 and a TΔSsolo ([3]; Buffer pH 7.4) of -5.09 kcal/mol. For the same molecule, the ΔGsolo ([3]; Buffer pH 7.4) was 7.15 ± 0.14 kcal/mol, the ΔHsolo ([3]; Buffer pH 7.4) was 2.03 ± 0.024 kcal/mol and the ΔSsolo ([3]; Buffer pH 7.4) was −71.4 ± 4.2 J·mol^−1·K^−1.
